From patent US6559101B2, “N- (5, 7-dimethoxy [1, 2, 4] triazolo [1, 5-a] pyrimidin-2-yl) arylsulfonamide compounds and their use as herbicides” (Dow AgroSciences LLC, priority 2000, dated 2003) come the findings set out here.

What all share (type): in vivo
For assay [1], the system named is morningglory (Ipomoea hederacea). Briefly: Preemergence herbicidal activity. Particulars: scored after 3 weeks, 0 no injury, 100 complete kill or no germination. As to the method:
(§1) The soil matrix was contained in plastic pots with a surface area of 161 square centimeters. When required to ensure good germination and healthy plants, a fungicide treatment and/or other chemical or physical treatment was applied. A weighed amount, determined by the highest rate to be tested, of each test compound was placed in a 20 mL glass vial and was dissolved in 8 mL of a 97:3 v/v (volume/volume) mixture of acetone and dimethyl sulfoxide to obtain concentrated stock solutions. […] The stock solutions obtained were diluted with a 99.9:0.1 mixture of water and Tween® 155 surfactant (ethoxylated sorbitan fatty acid ester) to obtain application solutions of known concentration. The solutions containing the highest concentration to be tested were prepared by diluting 4 mL aliquots of the stock solution with 8.5 mL of the mixture and lower concentrations were prepared by dilution of appropriate smaller portions of the stock solution. A 2.5 mL aliquot of each solution of known concentration was sprayed evenly onto the soil of each seeded pot using a Cornwall 5.0 mL glass syringe fitted with a TeeJet TN-3 hollow cone nozzle to obtain thorough coverage of the soil in each pot. Control pots were sprayed in the same manner with the aqueous mixture. A highest application rate of 4.48 kg/ha is achieved when 50 mg of test compound is employed. The treated pots and control pots were placed in a greenhouse with an approximately 15 hr photoperiod which was maintained at about 23-29° C. during the day and 22-28° C. during the night. Nutrients and water were added on a regular basis and supplemental lighting was provided with overhead metal halide 1000 Watt lamps as necessary. The water was added by top-irrigation. After 3 weeks the condition of the test plants that germinated and grew as compared with that of the untreated plants that germinated and grew was determined visually and scored on a scale of 0 to 100 percent where 0 corresponds to no injury and 100 corresponds to complete kill or no germination.

In assay [2] the test system is barnyardgrass (Echinochloa crus-galli). Briefly: Preemergence herbicidal activity. Particulars: scored after 3 weeks, 0 no injury, 100 complete kill or no germination. As to the method:
as §1

Assay [3] concerns blackgrass (Alopecurus myosuroides). The experiment in a line: Preemergence herbicidal activity. As to conditions: scored after 3 weeks, 0 no injury, 100 complete kill or no germination. Here is the method: as §1
Assay [4] relates to wild oats (Avena fatua). The experiment in a line: Preemergence herbicidal activity. Particulars: scored after 3 weeks, 0 no injury, 100 complete kill or no germination. As to the method: as §1
Assay [5] concerns wild poinsettia (Euphorbia heterophylla). Briefly: Preemergence herbicidal activity. As to conditions: scored after 3 weeks, 0 no injury, 100 complete kill or no germination. Here is the method: as §1
For assay [6], the system named is crabgrass (Digitaria sanguinalis). Briefly: Preemergence herbicidal activity. Particulars: scored after 3 weeks, 0 no injury, 100 complete kill or no germination. As to the method:
as §1

The subject of assay [7] is pigweed (Amaranthus retroflexus). Briefly: Preemergence herbicidal activity. Particulars: scored after 3 weeks, 0 no injury, 100 complete kill or no germination. Here is the method: as §1
The test system of assay [8] is giant foxtail (Setaria faberi). Briefly: Preemergence herbicidal activity. Particulars: scored after 3 weeks, 0 no injury, 100 complete kill or no germination. Here is the method: as §1
For assay [9], the system named is Rox orange sorghum (Sorghum bicolor). Briefly: Preemergence herbicidal activity. As to conditions: scored after 3 weeks, 0 no injury, 100 complete kill or no germination. As to the method: as §1
The test system of assay [10] is cocklebur (Xanthium strumarium). Briefly: Preemergence herbicidal activity. Particulars: scored after 3 weeks, 0 no injury, 100 complete kill or no germination. As to the method: as §1
For assay [11], the system named is velvetleaf (Abutilion theophrasti). The experiment in a line: Preemergence herbicidal activity. As to conditions: scored after 3 weeks, 0 no injury, 100 complete kill or no germination. Here is the method:
as §1

The test system of assay [12] is lambsquarters (Chenopodium album). Briefly: Preemergence herbicidal activity. As to conditions: scored after 3 weeks, 0 no injury, 100 complete kill or no germination. As to the method:
as §1

The test system of assay [13] is morningglory (Ipomoea hederacea). Briefly: Postemergence herbicidal activity. As to conditions: scored after 2 weeks, 0 no injury, 100 complete kill. Here is the method:
(§2) Seeds of the desired test plant species were planted in Grace-Sierra MetroMix® 306 planting mixture, which typically has a pH of 6.0 to 6.8 and an organic matter content of about 30 percent, in plastic pots with a surface area of 64 square centimeters. When required to ensure good germination and healthy plants, a fungicide treatment and/or other chemical or physical treatment was applied. The plants were grown for 7-21 days in a greenhouse with an approximately 15 hr photoperiod which was maintained at about 23-29° C. during the day and 22-28° C. during the night. Nutrients and water were added on a regular basis and supplemental lighting was provided with overhead metal halide 1000 Watt lamps as necessary. The plants were employed for testing when they reached the first or second true leaf stage. A weighed amount of each test compound, determined by the highest rate to be tested, was placed in a 20 mL glass vial and was dissolved in 4 mL of a 97:3 v/v (volume/volume) mixture of acetone and dimethyl sulfoxide to obtain concentrated stock solutions. […] The concentrated stock solutions obtained were diluted with an aqueous mixture containing acetone, water, iso-propyl alcohol, dimethyl sulfoxide, Atplus 411F crop oil concentrate, and Triton X-155 surfactant (methylenebisdiamyl phenoxy polyethoxy ethanol) in a 48.5:39:10:1.5:1.0:0.02 v/v ratio to obtain spray solutions of known concentration. The solutions containing the highest concentration to be tested were prepared by diluting 2 mL aliquots of the stock solution with 13 mL of the mixture and lower concentrations were prepared by dilution of appropriate smaller portions of the stock solution. Approximately 1.5 mL aliquots of each solution of known concentration were sprayed evenly onto each of the test plant pots using a Devilbiss atomizer driven by compressed air pressure of 2 to 4 psi (140 to 280 kiloPascals) to obtain thorough coverage of each plant. Control plants were sprayed in the same manner with the aqueous mixture. In this test an application rate of 1 ppm results in the application of approximately 1 g/ha. The treated plants and control plants were placed in a greenhouse as described above and watered by sub-irrigation to prevent wash-off of the test compounds. After 2 weeks the condition of the test plants as compared with that of the untreated plants was determined visually and scored on a scale of 0 to 100 percent where 0 corresponds to no injury and 100 corresponds to complete kill.

The test system of assay [14] is blackgrass (Alopecurus myosuroides). The experiment in a line: Postemergence herbicidal activity. As to conditions: scored after 2 weeks, 0 no injury, 100 complete kill. Here is the method: as §2
In assay [15] the test system is wild buckwheat (Polygonum convolvulus). The experiment in a line: Postemergence herbicidal activity. Particulars: scored after 2 weeks, 0 no injury, 100 complete kill. As to the method: as §2
Assay [16] relates to wild oats (Avena fatua). The experiment in a line: Postemergence herbicidal activity. As to conditions: scored after 2 weeks, 0 no injury, 100 complete kill. As to the method: as §2
In assay [17] the test system is chickweed (Stellaria media). Briefly: Postemergence herbicidal activity. As to conditions: scored after 2 weeks, 0 no injury, 100 complete kill. Here is the method: as §2
Assay [18] has as its system pigweed (Amaranthus retroflexus). The experiment in a line: Postemergence herbicidal activity. As to conditions: scored after 2 weeks, 0 no injury, 100 complete kill. As to the method: as §2
Assay [19] relates to giant foxtail (Setaria faberi). Briefly: Postemergence herbicidal activity. As to conditions: scored after 2 weeks, 0 no injury, 100 complete kill. As to the method:
as §2

Assay [20] deals with Rox orange sorghum (Sorghum bicolor). Briefly: Postemergence herbicidal activity. As to conditions: scored after 2 weeks, 0 no injury, 100 complete kill. Here is the method:
as §2

Assay [21] relates to cocklebur (Xanthium strumarium). Briefly: Postemergence herbicidal activity. As to conditions: scored after 2 weeks, 0 no injury, 100 complete kill. As to the method:
as §2

For assay [22], the system named is velvetleaf (Abutilion theophrasti). The experiment in a line: Postemergence herbicidal activity. Particulars: scored after 2 weeks, 0 no injury, 100 complete kill. Here is the method: as §2
The test system of assay [23] is lambsquarters (Chenopodium album). Briefly: Postemergence herbicidal activity. Particulars: scored after 2 weeks, 0 no injury, 100 complete kill. As to the method: as §2
The next assay has as its system viola (Viola tricolor). The experiment in a line: Postemergence herbicidal activity. As to conditions: scored after 2 weeks, 0 no injury, 100 complete kill. As to the method:
as §2

Structures are written as SMILES.

As for `COc1cc(OC)n2nc(NS(=O)(=O)c3c(C(F)(F)F)ccnc3F)nc2n1` [Compound 16], in [1] (140 g/Ha), the “Preemergence herbicidal activity IPOHE” value is reported as 0%. Besides, in [2] (140 g/Ha), the “Preemergence herbicidal activity ECHCG” value is 0%. In addition, the “Preemergence herbicidal activity ALOMY” value in assay [3] (140 g/Ha) came to 40%. Besides, the “Preemergence herbicidal activity AVEFA” value with wild oats (Avena fatua) [4] (140 g/Ha) is 30%. The “Preemergence herbicidal activity EPHHL” value in assay [5] (140 g/Ha) was determined as 0%. Further, the “Preemergence herbicidal activity DIGSA” value in [6] (140 g/Ha) is 0%. The “Preemergence herbicidal activity AMARE” value in assay [7] (140 g/Ha) is on record as 85%. Besides, the “Preemergence herbicidal activity SETFA” value in assay [8] (140 g/Ha) stood at 10%. Besides, in assay [9] (140 g/Ha), the “Preemergence herbicidal activity SORBI” value turned out to be 40%. Moreover, in [10] (140 g/Ha), the “Preemergence herbicidal activity XANST” value is reported as 40%. Further, in assay [11] (140 g/Ha), the “Preemergence herbicidal activity ABUTH” value came out at 20%. For the same molecule, the “Preemergence herbicidal activity CHEAL” value in assay [12] (140 g/Ha) is listed as 20%. The “Postemergence herbicidal activity IPOHE” value in [13] (125 ppm) amounted to 20%. For the same molecule, the “Postemergence herbicidal activity ALOMY” value in assay [14] (125 ppm) turned out to be 60%. In addition, the “Postemergence herbicidal activity POLCO” value in assay [15] (125 ppm) is 20%. For the same molecule, the “Postemergence herbicidal activity AVEFA” value in the assay on wild oats (Avena fatua) [16] (125 ppm) stood at 50%. Also, the “Postemergence herbicidal activity STEME” value in assay [17] (125 ppm) is on record as 60%. Besides, the “Postemergence herbicidal activity AMARE” value in [18] (125 ppm) is given as 75%. The “Postemergence herbicidal activity SETFA” value in assay [19] (125 ppm) was 75%. Further, the “Postemergence herbicidal activity SORBI” value in assay [20] (125 ppm) is on record as 50%. The “Postemergence herbicidal activity XANST” value in [21] (125 ppm) is 0%. In addition, the “Postemergence herbicidal activity ABUTH” value in [22] (125 ppm) is on record as 10%. Further, the “Postemergence herbicidal activity CHEAL” value in [23] (125 ppm) turned out to be 40%. Moreover, in the assay with viola (Viola tricolor) (125 ppm), the “Postemergence herbicidal activity VIOTR” value is recorded as 50%.

Consider `COc1cc(OC)n2nc(NS(=O)(=O)c3c(I)ccnc3OC)nc2n1` [Compound 17], for which the “Preemergence herbicidal activity IPOHE” value in assay [1] (17.5 g/Ha) was determined as 60%. Moreover, the “Preemergence herbicidal activity ECHCG” value in assay [2] (17.5 g/Ha) is recorded as 100%. The “Preemergence herbicidal activity ALOMY” value in assay [3] (17.5 g/Ha) is listed as 99%. The “Preemergence herbicidal activity AVEFA” value in the assay with wild oats (Avena fatua) [4] (17.5 g/Ha) stood at 90%. Besides, the “Preemergence herbicidal activity EPHHL” value in [5] (17.5 g/Ha) is recorded as 100%. Further, the “Preemergence herbicidal activity DIGSA” value in assay [6] (17.5 g/Ha) came to 100%. Further, in assay [7] (17.5 g/Ha), the “Preemergence herbicidal activity AMARE” value was 100%. The “Preemergence herbicidal activity SETFA” value in assay [8] (17.5 g/Ha) amounted to 100%. Besides, the “Preemergence herbicidal activity SORBI” value in [9] (17.5 g/Ha) stood at 99%. Further, the “Preemergence herbicidal activity XANST” value in [10] (17.5 g/Ha) amounted to 65%. The “Preemergence herbicidal activity ABUTH” value in assay [11] (17.5 g/Ha) is 75%. Moreover, in [12] (17.5 g/Ha), the “Preemergence herbicidal activity CHEAL” value was found to be 100%. In addition, the “Postemergence herbicidal activity IPOHE” value in assay [13] (15.6 ppm) is 70%. Further, in [14] (15.6 ppm), the “Postemergence herbicidal activity ALOMY” value was found to be 90%. Also, the “Postemergence herbicidal activity POLCO” value in assay [15] (15.6 ppm) worked out at 75%. Further, in the assay with wild oats (Avena fatua) [16] (15.6 ppm), the “Postemergence herbicidal activity AVEFA” value amounted to 90%. Moreover, in assay [17] (15.6 ppm), the “Postemergence herbicidal activity STEME” value came out at 75%. In addition, the “Postemergence herbicidal activity AMARE” value in assay [18] (15.6 ppm) amounted to 100%. The “Postemergence herbicidal activity SETFA” value in assay [19] (15.6 ppm) stood at 90%. Moreover, the “Postemergence herbicidal activity SORBI” value in [20] (15.6 ppm) amounted to 90%. The “Postemergence herbicidal activity XANST” value in assay [21] (15.6 ppm) worked out at 90%. For the same molecule, the “Postemergence herbicidal activity ABUTH” value in assay [22] (15.6 ppm) worked out at 78%. In addition, the “Postemergence herbicidal activity CHEAL” value in assay [23] (15.6 ppm) came out at 100%. Moreover, the “Postemergence herbicidal activity VIOTR” value in the assay with viola (Viola tricolor) (15.6 ppm) worked out at 98%.
